Assay results: BindingDB's records for patent US10961236 (Astrazeneca, 2021)

Target: T1, Phosphatidylinositol 4,5-bisphosphate 3-kinase catalytic subunit gamma isoform [144-1102] (Homo sapiens, UniProt P48736)
T1 construct: 144-1102
Experiment: Enzymatic Activity Assay
Experimental: Routinely, inhibitors were pre-incubated with 3 μl of enzyme for 15 min prior to the addition of 2 μl substrate mixture for a further 60 min enzyme reaction. The phosphorylation was stopped with the addition of 3 μl ADP-Glo reagent (stop solution) followed by a 40 min incubation. Prior to detection 6 μl of ADP-Glo Kinase Detection Reagent was added and the plates were read in a micro plate reader using a Luminescence filter. All additions were followed by a short centrifugation step.

T1 sequence (P48736 144-1102): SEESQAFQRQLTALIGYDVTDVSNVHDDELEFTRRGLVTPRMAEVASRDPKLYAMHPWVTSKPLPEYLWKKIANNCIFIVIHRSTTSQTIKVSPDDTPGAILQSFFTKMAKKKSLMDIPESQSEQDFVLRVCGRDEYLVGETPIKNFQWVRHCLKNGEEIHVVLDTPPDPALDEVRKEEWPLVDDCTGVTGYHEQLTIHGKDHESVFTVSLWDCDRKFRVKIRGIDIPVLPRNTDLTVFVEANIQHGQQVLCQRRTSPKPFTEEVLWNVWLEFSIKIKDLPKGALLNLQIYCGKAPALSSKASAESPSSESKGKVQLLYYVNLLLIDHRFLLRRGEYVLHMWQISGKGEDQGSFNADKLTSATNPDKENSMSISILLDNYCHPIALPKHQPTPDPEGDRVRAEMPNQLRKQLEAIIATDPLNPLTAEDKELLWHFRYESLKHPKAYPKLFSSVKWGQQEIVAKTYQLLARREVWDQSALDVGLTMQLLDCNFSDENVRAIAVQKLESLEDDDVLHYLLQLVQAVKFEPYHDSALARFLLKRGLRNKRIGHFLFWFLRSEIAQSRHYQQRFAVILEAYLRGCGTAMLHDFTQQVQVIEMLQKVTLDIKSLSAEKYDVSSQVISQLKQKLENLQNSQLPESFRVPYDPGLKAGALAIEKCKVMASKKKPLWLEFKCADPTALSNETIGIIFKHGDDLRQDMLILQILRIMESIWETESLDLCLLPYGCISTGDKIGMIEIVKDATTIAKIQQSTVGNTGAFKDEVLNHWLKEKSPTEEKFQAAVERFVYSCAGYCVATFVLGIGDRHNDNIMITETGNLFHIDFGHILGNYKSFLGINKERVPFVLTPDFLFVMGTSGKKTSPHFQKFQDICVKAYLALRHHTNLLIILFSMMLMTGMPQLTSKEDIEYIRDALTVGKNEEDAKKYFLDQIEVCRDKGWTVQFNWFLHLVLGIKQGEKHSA

IC50: 1 nM
Structure (SMILES): CC[C@H](C)N1Cc2cc(-c3sc(Nc4cccc(N5CCCOC5=O)n4)nc3C)cc(S(=O)(=O)NC)c2C1=O [US10961236, Example 61]
